The source of these data is US20050106242A1, “Melt blend dispersions” (priority 2003, published 2005).

≈ marks a conversion by molar mass, not a printed value.

Series [1] is described as follows: Water solubility of progesterone in artificial intestinal fluid. Conditions: fassgf or other biorelevant; at 37° C. in artificial intestinal fluid (AIF). It is filed as physicochemical.
The nature of series [2]: Particle size of progesterone precipitation in AIF (Horiba LA-910 laser scattering). In kind it is physicochemical. Conditions: ~4 mg progesterone in 15 ml AIF, shaken at 37° C.; FIG. 1 and FIG. 2. The method, then:
Samples as indicated below containing ˜4 mg of progesterone were added to 15 ml AIF and then were shaken in a water bath at 37° C. The particle size of the progesterone precipitation was measured with Horiba LA-910 laser scattering particle size analyzer.

`CC(=O)[C@H]1CC[C@H]2[C@@H]3CCC4=CC(=O)CC[C@]4(C)[C@H]3CC[C@]12C` [Progesterone, pregn-4-ene-3,20-dione]: in series [1], the concentration in solution (solubility) was 12 µg/mL (≈ 38.2 µM). In series [2], the mean particle size was found to be 72.4 μm.
